According to ChEMBL document CHEMBL2385026, “Identification of C-2 hydroxyethyl imidazopyrrolopyridines as potent JAK1 inhibitors with favorable physicochemical properties and high selectivity over JAK2” (J Med Chem, 2013):
Converted amounts (≈) assume the structure as drawn.

What was measured:
[1] = Hepatic clearance in human liver microsomes by LC/MS/MS analysis; type: ADME, Microsome
[2] = Hepatic clearance in human hepatocytes after 1 to 4 hrs by LC/MS/MS analysis; type: ADME, cell-based, Liver, Hepatocyte
[3] = Apparent permeability across apical to basolateral side in dog MDCK cells; type: ADME, cell-based, Canis lupus familiaris
[4] = molecular target: T1, Tyrosine-protein kinase JAK2 (Homo sapiens, UniProt O60674); type: cell-based, TF-1
[5] = molecular target: T1, Tyrosine-protein kinase JAK2
[6] = molecular target: T2, Tyrosine-protein kinase JAK1 (Homo sapiens, UniProt P23458)
[7] = molecular target: T2, Tyrosine-protein kinase JAK1; remark: listed apart in the source
[8] = molecular target: T2, Tyrosine-protein kinase JAK1; remark: listed apart in the source
Cytochrome P450 3A4 [9] = molecular target: T3, Cytochrome P450 3A4 (Homo sapiens, UniProt P08684); assay: Reversible inhibition of CYP3A4 in human liver microsomes using testosterone as substrate by LC/MS/MS analysis; type: ADME, Microsome
[10] = molecular target: Macrophage colony-stimulating factor 1 receptor (Homo sapiens) (UniProt P07333); assay: Inhibition of CSF1R (unknown origin) at 1 uM
Cytochrome P450 1A2 = molecular target: T4, Cytochrome P450 1A2 (Homo sapiens, UniProt P05177); assay: Reversible inhibition of CYP1A2 in human liver microsomes using phenacetin as substrate by LC/MS/MS analysis; type: ADME, Microsome
T4 sequence (P05177 whole entry): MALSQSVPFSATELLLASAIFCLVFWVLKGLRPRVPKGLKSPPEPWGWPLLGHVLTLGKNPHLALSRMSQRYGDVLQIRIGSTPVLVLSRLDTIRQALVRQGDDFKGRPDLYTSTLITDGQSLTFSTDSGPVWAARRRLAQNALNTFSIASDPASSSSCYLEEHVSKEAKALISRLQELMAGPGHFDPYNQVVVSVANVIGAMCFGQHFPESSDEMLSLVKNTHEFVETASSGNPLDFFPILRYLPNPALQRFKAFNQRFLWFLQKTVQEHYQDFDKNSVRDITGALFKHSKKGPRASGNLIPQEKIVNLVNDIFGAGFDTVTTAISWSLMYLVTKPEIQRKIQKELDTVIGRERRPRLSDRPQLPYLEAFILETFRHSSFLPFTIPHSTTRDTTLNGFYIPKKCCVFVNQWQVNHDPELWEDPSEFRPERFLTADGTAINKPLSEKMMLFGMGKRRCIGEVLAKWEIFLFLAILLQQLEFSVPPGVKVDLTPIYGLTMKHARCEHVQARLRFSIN

Cytochrome P450 3A4 [11] = molecular target: T3, Cytochrome P450 3A4; assay: Reversible inhibition of CYP3A4 in human liver microsomes using midazolam as substrate by LC/MS/MS analysis; type: ADME, Microsome
[12] = molecular target: Tyrosine-protein kinase JAK3 (Homo sapiens, UniProt P52333)
[13] = molecular target: Leucine-rich repeat serine/threonine-protein kinase 2 (Homo sapiens) (UniProt Q5S007); assay: Inhibition of LRRK2 (unknown origin) at 1 uM
[14] = Oral bioavailability in Beagle dog at 2 mg/kg by LC/MS/MS analysis; type: ADME, organism-based, Canis lupus familiaris; conditions: Beagle, in vivo
[15] = Oral bioavailability in Sprague-Dawley rat at 2 mg/kg by LC/MS/MS analysis; type: ADME, organism-based; conditions: Sprague-Dawley, in vivo
[16] = Cmax in Beagle dog at 2 mg/kg, po by LC/MS/MS analysis; type: ADME, organism-based, Canis lupus familiaris; parameters: dose 2 mg/kg, route oral; conditions: in vivo
[17] = AUC in Beagle dog at 2 mg/kg, po by LC/MS/MS analysis; type: ADME, organism-based, Canis lupus familiaris; parameters: dose 2 mg/kg, route oral; conditions: plasma
[18] = AUC in Sprague-Dawley rat at 2 mg/kg, po by LC/MS/MS analysis; type: ADME, organism-based; parameters: dose 2 mg/kg, route oral; conditions: plasma
[19] = Half life in Beagle dog at 0.4 mg/kg, iv by LC/MS/MS analysis; type: ADME, organism-based, Canis lupus familiaris; parameters: dose 0.4 mg/kg, route intravenous; conditions: in vivo
[20] = Half life in Sprague-Dawley rat at 0.4 mg/kg, iv by LC/MS/MS analysis; type: ADME, organism-based; parameters: dose 0.4 mg/kg, route intravenous; conditions: in vivo
[21] = Clearance in Beagle dog at 0.4 mg/kg, iv by LC/MS/MS analysis; type: ADME, organism-based, Canis lupus familiaris; parameters: dose 0.4 mg/kg, route intravenous; conditions: in vivo
[22] = Clearance in Sprague-Dawley rat at 0.4 mg/kg, iv by LC/MS/MS analysis; type: ADME, organism-based; parameters: dose 0.4 mg/kg, route intravenous; conditions: in vivo
[23] = Metabolic stability in monkey hepatocytes assessed as hepatic clearance; type: ADME, cell-based, Macaca mulatta, Liver, Hepatocyte; conditions: rhesus monkey
[24] = Metabolic stability in dog hepatocytes assessed as hepatic clearance; type: ADME, cell-based, Canis lupus familiaris, Liver, Hepatocyte
[25] = Metabolic stability in rat hepatocytes assessed as hepatic clearance; type: ADME, cell-based, Liver, Hepatocyte
[26] = Plasma protein binding in cynomolgus monkey; type: ADME, cell-free, Macaca fascicularis; conditions: read-out: PPB (converted)
[27] = Plasma protein binding in dog; type: ADME, cell-free, Canis lupus familiaris; conditions: read-out: PPB (converted)
[28] = Apparent permeability across basolateral to apical side in dog MDCK cells; type: ADME, cell-based, Canis lupus familiaris
[29] = Plasma protein binding in rat; type: ADME, cell-free; conditions: read-out: PPB (converted)
[30] = Thermodynamic solubility in aqueous buffer at pH 7.4; type: physicochemical; conditions: read-out: Therm_solubility
[31] = Thermodynamic solubility in aqueous buffer at pH 2; type: physicochemical; conditions: read-out: Therm_solubility
[32] = Cmax in Sprague-Dawley rat at 2 mg/kg, po by LC/MS/MS analysis; type: ADME, organism-based; parameters: dose 2 mg/kg, route oral; conditions: in vivo
Cytochrome P450 2C19 = Cytochrome P450 2C19 (Homo sapiens, UniProt P33261)
Cytochrome P450 2D6 = Cytochrome P450 2D6 (Homo sapiens, UniProt P10635)
Cytochrome P450 2C9 = Cytochrome P450 2C9 (Homo sapiens, UniProt P11712)
[33] = molecular target: T5, Non-receptor tyrosine-protein kinase TYK2 (Homo sapiens, UniProt P29597)
[34] = molecular target: T5, Non-receptor tyrosine-protein kinase TYK2; remark: listed apart in the source
[35] = molecular target: Voltage-gated inwardly rectifying potassium channel KCNH2 (Homo sapiens, UniProt Q12809)
[36] = Oral bioavailability in cynomolgus monkey at 2 mg/kg by LC/MS/MS analysis; type: ADME, organism-based, Macaca fascicularis; conditions: in vivo
[37] = Cmax in cynomolgus monkey at 2 mg/kg, po by LC/MS/MS analysis; type: ADME, organism-based, Macaca fascicularis; parameters: dose 2 mg/kg, route oral; conditions: in vivo
[38] = AUC in cynomolgus monkey at 2 mg/kg, po by LC/MS/MS analysis; type: ADME, organism-based, Macaca fascicularis; parameters: dose 2 mg/kg, route oral; conditions: plasma
[39] = Half life in cynomolgus monkey at 0.4 mg/kg, iv by LC/MS/MS analysis; type: ADME, organism-based, Macaca fascicularis; parameters: dose 0.4 mg/kg, route intravenous; conditions: in vivo
[40] = Clearance in cynomolgus monkey at 0.4 mg/kg, iv by LC/MS/MS analysis; type: ADME, organism-based, Macaca fascicularis; parameters: dose 0.4 mg/kg, route intravenous; conditions: in vivo

Chain of Cytochrome P450 2D6 (P10635 whole entry): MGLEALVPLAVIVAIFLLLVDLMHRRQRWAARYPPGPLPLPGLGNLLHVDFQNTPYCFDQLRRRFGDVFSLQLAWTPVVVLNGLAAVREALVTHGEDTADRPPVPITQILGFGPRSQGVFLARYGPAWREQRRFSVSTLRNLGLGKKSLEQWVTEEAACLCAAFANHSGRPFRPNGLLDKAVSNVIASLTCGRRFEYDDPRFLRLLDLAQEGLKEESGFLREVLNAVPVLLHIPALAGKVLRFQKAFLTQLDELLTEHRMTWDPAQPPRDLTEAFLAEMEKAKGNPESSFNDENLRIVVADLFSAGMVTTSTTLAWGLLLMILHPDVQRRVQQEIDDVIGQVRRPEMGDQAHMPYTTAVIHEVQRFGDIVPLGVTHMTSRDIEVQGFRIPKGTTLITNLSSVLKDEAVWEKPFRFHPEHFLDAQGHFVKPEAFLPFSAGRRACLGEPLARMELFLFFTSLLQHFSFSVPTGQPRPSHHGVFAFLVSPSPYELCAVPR
T2 sequence (P23458 whole entry): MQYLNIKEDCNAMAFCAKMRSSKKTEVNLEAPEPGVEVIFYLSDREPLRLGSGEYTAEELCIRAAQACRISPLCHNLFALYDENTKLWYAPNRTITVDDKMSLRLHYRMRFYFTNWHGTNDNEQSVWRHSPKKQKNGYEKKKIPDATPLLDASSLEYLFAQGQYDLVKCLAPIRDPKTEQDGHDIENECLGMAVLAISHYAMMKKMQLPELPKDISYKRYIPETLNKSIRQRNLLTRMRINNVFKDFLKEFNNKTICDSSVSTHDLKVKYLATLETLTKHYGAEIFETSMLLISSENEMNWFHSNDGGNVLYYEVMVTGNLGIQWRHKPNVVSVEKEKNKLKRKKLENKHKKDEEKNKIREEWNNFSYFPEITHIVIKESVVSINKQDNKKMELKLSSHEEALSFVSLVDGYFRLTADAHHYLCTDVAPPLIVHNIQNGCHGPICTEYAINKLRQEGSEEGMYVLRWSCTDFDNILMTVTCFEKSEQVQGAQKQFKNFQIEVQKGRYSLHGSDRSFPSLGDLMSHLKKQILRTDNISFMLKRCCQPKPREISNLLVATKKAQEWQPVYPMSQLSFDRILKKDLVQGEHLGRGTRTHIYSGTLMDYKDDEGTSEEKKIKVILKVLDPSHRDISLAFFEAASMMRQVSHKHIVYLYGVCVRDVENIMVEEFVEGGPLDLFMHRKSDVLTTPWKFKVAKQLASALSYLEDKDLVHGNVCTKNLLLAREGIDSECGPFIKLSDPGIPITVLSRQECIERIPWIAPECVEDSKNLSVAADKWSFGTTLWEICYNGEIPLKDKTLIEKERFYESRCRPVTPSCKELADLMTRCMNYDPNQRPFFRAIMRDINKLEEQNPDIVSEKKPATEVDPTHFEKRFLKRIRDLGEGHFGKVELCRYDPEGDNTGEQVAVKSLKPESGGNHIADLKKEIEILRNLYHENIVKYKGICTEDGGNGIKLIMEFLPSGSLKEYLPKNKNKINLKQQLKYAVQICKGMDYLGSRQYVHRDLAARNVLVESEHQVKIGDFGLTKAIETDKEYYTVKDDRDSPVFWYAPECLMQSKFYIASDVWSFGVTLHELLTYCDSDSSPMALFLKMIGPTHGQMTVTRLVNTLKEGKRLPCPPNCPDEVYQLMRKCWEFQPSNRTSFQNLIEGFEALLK
Chain of Cytochrome P450 2C9 (P11712 whole entry): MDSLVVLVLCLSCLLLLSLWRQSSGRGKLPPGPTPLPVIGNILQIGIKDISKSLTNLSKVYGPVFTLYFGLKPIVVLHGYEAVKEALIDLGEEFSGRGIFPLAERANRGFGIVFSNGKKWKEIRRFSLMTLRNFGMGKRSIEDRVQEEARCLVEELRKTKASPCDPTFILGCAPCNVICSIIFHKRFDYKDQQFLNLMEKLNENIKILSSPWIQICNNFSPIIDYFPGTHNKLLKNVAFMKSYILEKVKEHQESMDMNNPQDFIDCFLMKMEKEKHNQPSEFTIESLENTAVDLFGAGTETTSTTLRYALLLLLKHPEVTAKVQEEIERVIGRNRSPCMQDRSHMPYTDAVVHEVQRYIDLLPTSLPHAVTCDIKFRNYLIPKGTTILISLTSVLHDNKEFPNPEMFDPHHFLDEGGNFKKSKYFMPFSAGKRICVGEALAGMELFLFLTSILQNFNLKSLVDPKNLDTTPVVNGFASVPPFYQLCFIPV
Chain of Cytochrome P450 2C19 (P33261 whole entry): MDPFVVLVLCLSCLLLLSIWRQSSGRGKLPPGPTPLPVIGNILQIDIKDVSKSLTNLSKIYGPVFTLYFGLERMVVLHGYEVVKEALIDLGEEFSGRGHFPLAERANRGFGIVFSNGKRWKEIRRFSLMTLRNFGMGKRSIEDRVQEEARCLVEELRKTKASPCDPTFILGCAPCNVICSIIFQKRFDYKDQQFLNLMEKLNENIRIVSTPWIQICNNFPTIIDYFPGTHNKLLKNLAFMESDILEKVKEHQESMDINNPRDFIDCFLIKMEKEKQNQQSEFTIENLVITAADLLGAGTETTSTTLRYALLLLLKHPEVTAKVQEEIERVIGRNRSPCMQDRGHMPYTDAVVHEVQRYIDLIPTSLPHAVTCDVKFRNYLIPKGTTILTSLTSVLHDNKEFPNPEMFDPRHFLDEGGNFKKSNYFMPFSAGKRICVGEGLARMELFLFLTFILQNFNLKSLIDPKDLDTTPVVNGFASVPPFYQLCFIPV
Chain of Tyrosine-protein kinase JAK3 (P52333 whole entry): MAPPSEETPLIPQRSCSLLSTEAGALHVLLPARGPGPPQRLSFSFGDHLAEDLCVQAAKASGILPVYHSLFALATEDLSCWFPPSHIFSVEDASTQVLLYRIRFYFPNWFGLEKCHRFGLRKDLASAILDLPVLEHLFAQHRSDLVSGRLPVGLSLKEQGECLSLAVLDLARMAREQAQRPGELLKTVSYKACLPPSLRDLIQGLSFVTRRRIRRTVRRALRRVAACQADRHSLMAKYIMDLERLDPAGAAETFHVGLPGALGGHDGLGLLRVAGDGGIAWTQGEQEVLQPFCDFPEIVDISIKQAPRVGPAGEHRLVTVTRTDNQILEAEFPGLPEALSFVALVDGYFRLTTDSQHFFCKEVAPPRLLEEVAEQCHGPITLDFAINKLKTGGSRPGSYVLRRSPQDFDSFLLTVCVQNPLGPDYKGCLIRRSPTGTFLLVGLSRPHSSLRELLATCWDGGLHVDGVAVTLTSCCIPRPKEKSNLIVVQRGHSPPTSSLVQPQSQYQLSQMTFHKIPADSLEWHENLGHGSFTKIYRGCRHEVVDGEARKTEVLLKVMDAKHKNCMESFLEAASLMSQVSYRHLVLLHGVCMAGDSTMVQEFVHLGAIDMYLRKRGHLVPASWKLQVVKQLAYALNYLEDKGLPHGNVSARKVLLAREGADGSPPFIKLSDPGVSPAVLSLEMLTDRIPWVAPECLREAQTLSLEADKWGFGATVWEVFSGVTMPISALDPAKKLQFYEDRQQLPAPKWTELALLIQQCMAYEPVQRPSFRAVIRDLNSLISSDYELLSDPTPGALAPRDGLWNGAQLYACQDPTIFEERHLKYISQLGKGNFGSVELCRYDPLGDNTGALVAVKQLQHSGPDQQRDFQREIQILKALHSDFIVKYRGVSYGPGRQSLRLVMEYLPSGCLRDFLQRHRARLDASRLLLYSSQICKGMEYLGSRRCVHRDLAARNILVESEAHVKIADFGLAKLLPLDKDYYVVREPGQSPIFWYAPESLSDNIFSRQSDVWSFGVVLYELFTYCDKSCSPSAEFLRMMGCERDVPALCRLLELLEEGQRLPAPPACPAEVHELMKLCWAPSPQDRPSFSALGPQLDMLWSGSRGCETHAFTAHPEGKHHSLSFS
T3 sequence (P08684 whole entry): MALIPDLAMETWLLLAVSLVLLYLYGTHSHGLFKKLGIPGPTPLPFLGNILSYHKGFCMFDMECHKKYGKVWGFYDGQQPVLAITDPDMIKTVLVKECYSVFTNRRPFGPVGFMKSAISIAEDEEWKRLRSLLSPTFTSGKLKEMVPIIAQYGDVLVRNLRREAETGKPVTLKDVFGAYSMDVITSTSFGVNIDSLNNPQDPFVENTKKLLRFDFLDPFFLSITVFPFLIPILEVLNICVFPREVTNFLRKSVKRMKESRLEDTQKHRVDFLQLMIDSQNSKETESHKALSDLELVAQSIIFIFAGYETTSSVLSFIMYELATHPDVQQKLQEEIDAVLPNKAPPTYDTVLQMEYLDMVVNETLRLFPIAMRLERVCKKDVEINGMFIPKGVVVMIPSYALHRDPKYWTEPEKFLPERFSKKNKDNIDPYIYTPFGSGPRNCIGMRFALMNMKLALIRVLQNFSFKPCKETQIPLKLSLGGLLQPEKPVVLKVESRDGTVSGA

Structure (SMILES)	CLhep predicted [1] [mL/min/kg]	CLhep predicted [2] [mL/min/kg]	Papp A→B [3] [×10⁻⁶ cm/s]	EC50 [4] [nM]	Ki [5] [nM]	EC50 [6] [nM]	EC50 [7] [nM]	Ki [8] [nM]	IC50 (Cytochrome P450 3A4 [9]) [nM]	IC50 (Cytochrome P450 1A2) [nM]	IC50 (Cytochrome P450 3A4 [11]) [nM]	Ki [12] [nM]	bioavailability [14] [%]	bioavailability [15] [%]	Cmax [16] [nM]	AUC [17] [µM·h]	AUC [18] [µM·h]	half-life [19] [h]	half-life [20] [h]	clearance [21] [mL/min/kg]	also measured
OCCc1nc2cnc3[nH]ccc3c2n1C1CCCCC1	5.3	17	23	1500	18	1500	130	3.5													
C[C@@H](O)c1nc2cnc3[nH]ccc3c2n1[C@H]1CC[C@@H](NCC(F)(F)F)C1	3.8	3.6	10			51	70	2	> 10000	> 10000	> 10000	53	131	61	3000	9	1	1.2	1.1	14	inhibition [10]: 75%; inhibition [13]: 72%; clearance [22]: 55 mL/min/kg; CLhep predicted [23]: 27 mL/min/kg; CLhep predicted [24]: 9.8 mL/min/kg; CLhep predicted [25]: 14 mL/min/kg; fraction unbound [26]: 0.44; fraction unbound [27]: 0.41; Papp B→A [28]: 18 ×10⁻⁶ cm/s; fraction unbound [29]: 0.51; solubility thermodynamic [30]: 70 µM (≈ 25.7 µg/mL); solubility thermodynamic [31]: > 4000 µM; Cmax [32]: 980 nM; IC50 (Cytochrome P450 2C19): > 10000 nM; IC50 (Cytochrome P450 2D6): > 10000 nM; IC50 (Cytochrome P450 2C9): > 10000 nM; EC50 [33]: 2200 nM; Ki [34]: 20 nM
OCc1nc2cnc3[nH]ccc3c2n1C1CCCCC1	5.6	19	24	730	8.3	313	64	1.1													
C[C@@H](O)c1nc2cnc3[nH]ccc3c2n1[C@H]1CC[C@H](NCC(F)(F)F)CC1	3.3	2	6.7			29	28	0.8	> 10000	> 10000	> 10000	76	139	54	2100	9.9	1.4	1.7	0.5	13	clearance [22]: 36 mL/min/kg; CLhep predicted [23]: 26 mL/min/kg; CLhep predicted [24]: 2.3 mL/min/kg; CLhep predicted [25]: 11 mL/min/kg; fraction unbound [26]: 0.35; fraction unbound [27]: 0.45; Papp B→A [28]: 10 ×10⁻⁶ cm/s; fraction unbound [29]: 0.44; solubility thermodynamic [30]: 130 µM (≈ 49.6 µg/mL); solubility thermodynamic [31]: 3900 µM (≈ 1490 µg/mL); Cmax [32]: 960 nM; IC50 (Cytochrome P450 2C19): > 10000 nM; IC50 (Cytochrome P450 2D6): > 10000 nM; IC50 (Cytochrome P450 2C9): > 10000 nM; IC50 [35]: > 100000 nM; EC50 [33]: 310 nM; Ki [34]: 3.4 nM
C[C@@H](O)c1nc2cnc3[nH]ccc3c2n1C1CCCCC1			23	1700	21																
C[C@H](O)c1nc2cnc3[nH]ccc3c2n1C1CCCCC1				5300	90																
CC(C)(O)c1nc2cnc3[nH]ccc3c2n1C1CCCCC1			19	4400	76		330	13													
OC[C@@H](O)c1nc2cnc3[nH]ccc3c2n1C1CCCCC1	1.8	6.8	16			220	69	1.6													
C[C@@H](O)c1nc2cnc3[nH]ccc3c2n1[C@H]1CC[C@H](CCC#N)CC1	5.2	5.7	4.7						> 10000	> 10000	6700	7.8	125	50	1300	4.3	0.42	1.3	0.6	29	bioavailability [36]: 8%; Cmax [37]: 70 nM; AUC [38]: 0.26 µM·h; half-life [39]: 0.8 h; clearance [40]: 29 mL/min/kg; clearance [22]: 126 mL/min/kg; CLhep predicted [23]: 36 mL/min/kg; CLhep predicted [24]: 11 mL/min/kg; CLhep predicted [25]: 28 mL/min/kg; fraction unbound [26]: 0.24; fraction unbound [27]: 0.34; Papp B→A [28]: 9.3 ×10⁻⁶ cm/s; fraction unbound [29]: 0.32; solubility thermodynamic [30]: 16 µM (≈ 5.4 µg/mL); solubility thermodynamic [31]: > 4000 µM; Cmax [32]: 220 nM; IC50 (Cytochrome P450 2C19): > 10000 nM; IC50 (Cytochrome P450 2D6): > 10000 nM; IC50 (Cytochrome P450 2C9): > 10000 nM; IC50 [35]: 20000 nM
